Calls of active or inactive are those of the source. The calls are words filed in the database; no cut-off is given here.
What was measured:
Mus musculus [1] = assay: Neurotoxicity in Mus musculus CF1 albino (mouse) assessed as minimal motor impairment at 300 mg/kg, ip measured at 4 hr by rotorod test; type: toxicity, organism-based; set-up: dose 300 mg/kg, route intraperitoneal; details: in vivo
Mus musculus [2] = assay: Anticonvulsant activity in Mus musculus CF1 albino (mouse) assessed as protection against maximal electroshock-induced seizures at 100 mg/kg, ip measured at 4 hr; type: functional, organism-based; set-up: dose 100 mg/kg
Mus musculus [3] = assay: Anticonvulsant activity in Mus musculus CF1 albino (mouse) assessed as protection against maximal electroshock-induced seizures at 30 mg/kg, ip measured at 4 hr; type: functional, organism-based; set-up: dose 30 mg/kg
Mus musculus [4] = assay: Neurotoxicity in Mus musculus CF1 albino (mouse) assessed as minimal motor impairment at 30 mg/kg, ip measured at 0.5 hr by rotorod test; type: toxicity, organism-based; set-up: dose 30 mg/kg, route intraperitoneal; details: in vivo
Mus musculus [5] = assay: Anticonvulsant activity in Mus musculus CF1 albino (mouse) assessed as protection against maximal electroshock-induced seizures at 30 mg/kg, ip measured at 0.5 hr; type: functional, organism-based; set-up: dose 30 mg/kg
Mus musculus [6] = assay: Anticonvulsant activity in Mus musculus CF1 albino (mouse) assessed as protection against subcutaneous metrazol-induced seizures at 30 mg/kg, ip measured at 4 hr; type: functional, organism-based; set-up: dose 30 mg/kg
Mus musculus [7] = assay: Neurotoxicity in Mus musculus CF1 albino (mouse) assessed as minimal motor impairment at 30 mg/kg, ip measured at 4 hr by rotorod test; type: toxicity, organism-based; set-up: dose 30 mg/kg, route intraperitoneal; details: in vivo
Mus musculus [8] = assay: Neurotoxicity in Mus musculus CF1 albino (mouse) assessed as minimal motor impairment at 100 mg/kg, ip measured at 4 hr by rotorod test; type: toxicity, organism-based; set-up: dose 100 mg/kg, route intraperitoneal; details: in vivo
Mus musculus [9] = assay: Neurotoxicity in Mus musculus CF1 albino (mouse) assessed as minimal motor impairment at 100 mg/kg, ip measured at 0.5 hr by rotorod test; type: toxicity, organism-based; set-up: dose 100 mg/kg, route intraperitoneal; details: in vivo
Mus musculus [10] = assay: Anticonvulsant activity in Mus musculus CF1 albino (mouse) assessed as protection against electrically-induced seizure at 100 mg/kg, ip measured at 1 hr by 6Hz psychomotor seizure test; type: functional, organism-based; set-up: dose 100 mg/kg
Mus musculus [11] = assay: Anticonvulsant activity in Mus musculus CF1 albino (mouse) assessed as protection against maximal electroshock-induced seizures at 300 mg/kg, ip measured at 0.5 hr; type: functional, organism-based; set-up: dose 300 mg/kg
Mus musculus [12] = assay: Anticonvulsant activity in Mus musculus CF1 albino (mouse) assessed as protection against subcutaneous metrazol-induced seizures at 100 mg/kg, ip measured at 4 hr; type: functional, organism-based; set-up: dose 100 mg/kg
Mus musculus [13] = assay: Neurotoxicity in Mus musculus CF1 albino (mouse) assessed as minimal motor impairment at 300 mg/kg, ip measured at 0.5 hr by rotorod test; type: toxicity, organism-based; set-up: dose 300 mg/kg, route intraperitoneal; details: in vivo
Mus musculus [14] = assay: Anticonvulsant activity in Mus musculus CF1 albino (mouse) assessed as protection against electrically-induced seizure at 100 mg/kg, ip measured at 4 hr by 6Hz psychomotor seizure test; type: functional, organism-based; set-up: dose 100 mg/kg
Mus musculus [15] = assay: Anticonvulsant activity in Mus musculus CF1 albino (mouse) assessed as protection against electrically-induced seizure at 100 mg/kg, ip measured at 2 hr by 6Hz psychomotor seizure test; type: functional, organism-based; set-up: dose 100 mg/kg
Mus musculus [16] = assay: Anticonvulsant activity in Mus musculus CF1 albino (mouse) assessed as protection against subcutaneous metrazol-induced seizures at 300 mg/kg, ip measured at 0.5 hr; type: functional, organism-based; set-up: dose 300 mg/kg
Mus musculus [17] = assay: Anticonvulsant activity in Mus musculus CF1 albino (mouse) assessed as protection against maximal electroshock-induced seizures at 300 mg/kg, ip measured at 4 hr; type: functional, organism-based; set-up: dose 300 mg/kg
Mus musculus [18] = assay: Anticonvulsant activity in Mus musculus CF1 albino (mouse) assessed as protection against subcutaneous metrazol-induced seizures at 100 mg/kg, ip measured at 0.5 hr; type: functional, organism-based; set-up: dose 100 mg/kg
Mus musculus [19] = assay: Anticonvulsant activity in Mus musculus CF1 albino (mouse) assessed as protection against subcutaneous metrazol-induced seizures at 30 mg/kg, ip measured at 0.5 hr; type: functional, organism-based; set-up: dose 30 mg/kg
Mus musculus [20] = assay: Anticonvulsant activity in ip dosed Mus musculus CF1 albino (mouse) assessed as protection against subcutaneous metrazol-induced seizures measured at 0.25 hr; type: functional
Mus musculus [21] = assay: Anticonvulsant activity in Mus musculus CF1 albino (mouse) assessed as protection against maximal electroshock-induced seizures at 100 mg/kg, ip measured at 0.5 hr; type: functional, organism-based; set-up: dose 100 mg/kg
[22] = Protective index, ratio of TD50 for neurotoxicity in ip dosed Mus musculus CF1 albino (mouse) to ED50 for protection against subcutaneous metrazol-induced seizures in ip dosed Mus musculus CF1 albino (mouse); type: toxicity, organism-based; details: in vivo, read-out: Ratio TD50/ED50
[23] = Protective index, ratio of TD50 for neurotoxicity in ip dosed Mus musculus CF1 albino (mouse) to ED50 for protection against maximal electroshock-induced seizures in ip dosed Mus musculus CF1 albino (mouse); type: toxicity, organism-based; details: in vivo, read-out: Ratio TD50/ED50
Mus musculus [24] = assay: Anticonvulsant activity in Mus musculus CF1 albino (mouse) assessed as protection against subcutaneous metrazol-induced seizures at 300 mg/kg, ip measured at 4 hr; type: functional, organism-based; set-up: dose 300 mg/kg
Mus musculus [25] = assay: Anticonvulsant activity in ip dosed Mus musculus CF1 albino (mouse) assessed as protection against maximal electroshock-induced seizures measured at 0.25 hr; type: functional
Mus musculus [26] = assay: Anticonvulsant activity in ip dosed Mus musculus CF1 albino (mouse) assessed as protection against electrically-induced seizure measured at 0.25 hr by 6Hz psychomotor seizure test; type: functional
[27] = Neurotoxicity in ip dosed Mus musculus CF1 albino (mouse) assessed as minimal motor impairment measured at 0.25 hr by rotorod test; type: toxicity, organism-based; details: in vivo

SMILES	Activity (Mus musculus [1])	Activity (Mus musculus [2])	Activity (Mus musculus [3])	Activity (Mus musculus [4])	Activity (Mus musculus [5])	Activity (Mus musculus [6])	Activity (Mus musculus [7])	Activity (Mus musculus [8])	Activity (Mus musculus [9])	Activity (Mus musculus [11])	Activity (Mus musculus [12])	Activity (Mus musculus [13])	Activity (Mus musculus [14])	Activity (Mus musculus [15])	Activity (Mus musculus [16])	Activity (Mus musculus [17])	Activity (Mus musculus [18])	Activity (Mus musculus [19])	Activity (Mus musculus [21])	Activity (Mus musculus [24])	also measured
CCOc1ccc(-c2nc(-c3ccccc3)c[nH]2)cc1	Non-toxic	inactive	inactive	Non-toxic	inactive	inactive	Non-toxic	Non-toxic	Non-toxic	Active	inactive	Non-toxic	inactive	inactive	inactive	inactive	inactive	inactive			Activity (Mus musculus [10]): inactive
COc1ccc(-c2nc(-c3ccccc3)c[nH]2)cc1	Toxic		inactive	Non-toxic	inactive	inactive	Non-toxic	Non-toxic	Non-toxic	Active	inactive	Toxic	inactive	inactive	Active	Active	inactive	inactive	Active	inactive	ED50 (Mus musculus [20]): 142 mg/kg; selectivity ratio [22]: 1.4; selectivity ratio [23]: 4.3; ED50 (Mus musculus [25]): 46.8 mg/kg
O=C1NC(=O)C(c2ccccc2)(c2ccccc2)N1 [PHENYTOIN]																					ED50 (Mus musculus [26]): 27.5 mg/kg; TD50 at 0.25 h [27]: 35.6 mg/kg
CC(C)Oc1ccc(-c2nc(-c3ccccc3)c[nH]2)cc1		inactive	inactive	Non-toxic	Active	inactive	Non-toxic	Non-toxic	Non-toxic	Active	inactive	Toxic	inactive	inactive	inactive	Active	inactive	inactive	Active	inactive	
CC(C)c1ccc(-c2nc(-c3ccccc3)c[nH]2)cc1	Non-toxic	inactive	inactive	Non-toxic	inactive	inactive	Non-toxic	Non-toxic	Non-toxic	Active	inactive	Non-toxic			inactive	Active	inactive	inactive	inactive	inactive	Activity (Mus musculus [10]): inactive
COc1ccc(-c2nc(-c3ccc(Cl)cc3)c[nH]2)cc1	Non-toxic	Active	inactive	Non-toxic	inactive	inactive	Non-toxic	Non-toxic	Non-toxic	Active	inactive	Non-toxic	inactive	inactive	inactive	Active	inactive	inactive		inactive	TD50 at 0.25 h [27]: 238 mg/kg; ED50 (Mus musculus [20]): 158 mg/kg; selectivity ratio [22]: 1.5; selectivity ratio [23]: 3.5; ED50 (Mus musculus [25]): 68.8 mg/kg
COc1ccc(-c2nc(-c3cccc(Cl)c3)c[nH]2)cc1	Non-toxic		inactive	Non-toxic	inactive	inactive	Non-toxic	Non-toxic	Non-toxic	Active	inactive	Non-toxic	inactive		inactive	Active	inactive	inactive	inactive	inactive	TD50 at 0.25 h [27]: 390 mg/kg; Activity (Mus musculus [10]): inactive; ED50 (Mus musculus [20]): 103 mg/kg; selectivity ratio [22]: 3.8; selectivity ratio [23]: 4.7; ED50 (Mus musculus [25]): 82.1 mg/kg
